Measured values from patent publication US10246442B2, “4-Aminoquinazolin compounds as prolyl hydroxylase inhibitors” (JANSSEN PHARMACEUTICA NV, priority 2011, dated 2019).

Key:
[1] = tested on: Erythropoietin secretion, Hep-3B cells; experiment: Cellular assay: EPO secretion in Hep-3B cells; type: cell-based; conditions: Homo sapiens, Hep3B, 100 μM compound, 24 hours, percent of EPO secretion relative to assay control compound 7-[(4-Chloro-phenyl)-(5-methyl-isoxazol-3-ylamino)-methyl]-quinolin-8-ol, read-out: Cellular % EPO Stimulation
Method: Hep-3B cells (ATCC, Manassas, Va.) were plated in 96-well plates at 20,000 cells per well in 100 μl of DMEM containing 10% fetal bovine serum, 1% non-essential amino acids, 50 IU/mL of penicillin and 50 μg/mL of streptomycin (all cell culture reagents from Invitrogen, Carlsbad, Calif.). Twenty-four hours after plating, compounds were added and incubated for an additional 24 hours. All compounds were tested with final compound concentrations at 100 μM. Fifty microliters of the supernatant was then transferred to a human Hypoxia assay kit (Meso-Scale Discovery, Gaithersburg, Md.). Erythropoietin in the supernatant was detected according to the manufacturer's instructions as follows. EPO detection plates were blocked with 3% BSA in PBS overnight and 50 μl of the supernatant was incubated at room temperature in an orbital shaker for 2 h. Twenty-five microliters of 0.5 μg/ml anti-EPO detection antibody was added for 2 hours at room temperature in an orbital shaker. After 3 washes in PBS, 150 μl of 1× read buffer is added and the plate is then read on the MSD SECTOR instrument. Data was analyzed by determining the percent of EPO secretion in the presence of 100 μM compound relative to an assay control compound, 7-[(4-Chloro-phenyl)-(5-methyl-isoxazol-3-ylamino)-methyl]-quinolin-8-ol.

PHD2181-417 = PHD2181-417 (Homo sapiens (Human), UniProt Q9GZT9); experiment: PHD enzymatic assay ([14C]-succinic acid production); type: biochemical; conditions: purified PHD2181-417, HIF-1α peptide substrate, 30 min pre-incubation; average of results
Sequence of PHD2181-417 (Q9GZT9 181-417): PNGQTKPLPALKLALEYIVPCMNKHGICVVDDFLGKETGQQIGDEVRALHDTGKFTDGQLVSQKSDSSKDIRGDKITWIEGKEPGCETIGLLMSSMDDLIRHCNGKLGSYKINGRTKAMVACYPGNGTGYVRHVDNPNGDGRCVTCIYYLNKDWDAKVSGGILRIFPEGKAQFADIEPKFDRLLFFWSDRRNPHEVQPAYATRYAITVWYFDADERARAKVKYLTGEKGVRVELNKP
Method: Expression and Purification of PHD2181-417
The human PHD2 expression construct containing amino acids 181-417 of GenBank Accession ID NM_022051 was cloned into a pBAD vector (Invitrogen), incorporating both an N-terminal histidine tag and a Smt3-tag, both of which are cleaved by Ulp1. Protein production was achieved by expression in BL21 cells grown in Terrific Broth containing 100 μg/ml ampicillin. Cell cultures were inoculated at 37° C. and grown to an OD600 of 0.8. Cultures were induced with 0.1% arabinose and grown overnight at 20° C. with continuous shaking at 225 rpm. Cells were then harvested by centrifugation and stored at −80° C. Cell pellets were suspended in Buffer A (50 mM Tris-HCl pH 7.2, 100 mM NaCl, 100 mM L-arginine, 1 mM TCEP, 0.05% (w/v) NP-40, 50 mM imidazole) followed by the addition of lysozyme and benzonase. Cells were lysed by sonication and the lysate was cleared by centrifugation (15,000 rpm, 90 min, 4° C.). The protein was purified by nickel affinity chromatography using a HisTrap Crude FF column (GE Healthcare). Samples were eluted in Buffer A with a 50-200 mM imidazole gradient. Cleavage of the Smt tag with Ulp1 protease was achieved via overnight incubation with dialyzing against Buffer A. The PHD2181-417 sample was then passed over a second HisTrap Crude FF column (GE Healthcare) to remove uncleaved protein. The flow-through was then dialyzed into 50 mM MES pH 6.0, 1 mM TCEP, 5 mM NaCl for ion exchange chromatography on a HiTrap SP Cation Exchange column (GE Healthcare). The PHD2181-417 protein was eluted with a 0-0.2 M NaCl gradient. Fractions were pooled for further purification by size exclusion chromatography over a Superdex 75 Size Exclusion Column (GE Healthcare). Final protein was concentrated to 4 mg/ml and dialyzed in 10 mM PIPES pH 7.0, 100 mM NaCl, 0.5 mM TCEP.
(10 μM, California Peptide Research Inc., Napa, Calif.), and [5-^14C]-2-oxoglutaric acid (50 mCi/mmol, Moravek Chemicals, Brea, Calif.) in reaction buffer (40 mM Tris-HCl, pH 7.5, 0.4 mg/ml catalase, 0.5 mM DTT, 1 mM ascorbate) for 10 minutes. Compounds were pre-incubated for 30 min before starting the reaction (all test compounds were dissolved at 10 mM in 100% DMSO (w/v) and were tested with final compound concentrations at 100 μM in 1% DMSO (w/v)). The reaction was stopped by addition of 50 μl of 70 mM H3PO4 and 50 μl of 500 mM NaH2PO4, pH 3.2. Detection of [^14C]-succinic acid was achieved by separating from [5-^14C]-2-oxoglutaric acid by incubating the reaction mixture with 100 μl of 0.16 M DNP prepared in 30% perchloric acid. Next, 50 μl of unlabeled 20 mM 2-oxoglutaric acid/20 mM succinic acid, serving as carrier for the radioactivity, was added to the mixture, and was allowed to proceed for 30 minutes at room temperature. The reaction was then incubated with 50 μl of 1 M 2-oxoglutaric acid for 30 additional minutes at room temperature to precipitate the excess DNP. The reaction was then centrifuged at 2800×g for 10 minutes at room temperature to separate [^14C]-succinic acid in the supernatant from the precipitated [^14C]-dinitrophenylhydrazone. Fractions of the supernatant (400 μI) were counted using a beta counter (Beckman Coulter, Fullerton, Calif.). Inhibition of PHD2181-417 activity was measured as a decrease in succinic acid production. The IC50 values were estimated by fitting the data to a three-parameter logistic function using GraphPad Prism, version 4.02 (Graph Pad Software, San Diego, Calif.).

Structure (SMILES) | Enzyme pIC50 (PHD2181-417) | activation at 100 µM [1]
CCN(CC)c1nc(-n2cc(C(=O)O)cn2)nc2ccc(Oc3ccc(Cl)cc3)cc12 [Example 60, 1-(6-(4-Chlorophenoxy)-4-(diethylamino)quinazolin-2-yl)-1H-pyrazole-4-carboxylic acid] | 7.3 | 22%
O=C(O)c1cnn(-c2nc(N3CCCC3)c3cc(Oc4ccc(Cl)cc4)ccc3n2)c1 [Example 61, 1-(6-(4-Chlorophenoxy)-4-(pyrrolidin-1-yl)quinazolin-2-yl)-1H-pyrazole-4-carboxylic acid] | 7.3 | 96%
O=C(O)c1cnn(-c2nc(N3CCCCC3)c3cc(Oc4ccc(Cl)cc4)ccc3n2)c1 [Example 63, 1-(6-(4-Chlorophenoxy)-4-(piperidin-1-yl)quinazolin-2-yl)-1H-pyrazole-4-carboxylic acid] | 7.6 | 39%
O=C(O)c1cnn(-c2nc(NC3CCOCC3)c3cc(Oc4ccc(Cl)cc4)ccc3n2)c1 [Example 68, 1-(6-(4-Chlorophenoxy)-4-((tetrahydro-2H-pyran-4-yl)amino)quinazolin-2-yl)-1H-pyrazole-4-carboxylic acid] | 6.9 | 40%
O=C(O)c1cnn(-c2nc(Nc3ccccc3)c3cc(Oc4ccc(Cl)cc4)ccc3n2)c1 [Example 69, 1-(6-(4-Chlorophenoxy)-4-(phenylamino)quinazolin-2-yl)-1H-pyrazole-4-carboxylic acid] | 7.7 | 23%
CN1CCCN(c2nc(-n3cc(C(=O)O)cn3)nc3ccc(Oc4ccc(Cl)cc4)cc23)CC1 [Example 71, 1-(6-(4-Chlorophenoxy)-4-(4-methyl-1,4-diazepan-1-yl)quinazolin-2-yl)-1H-pyrazole-4-carboxylic acid] | 6.7 | 17%
O=C(O)c1cnn(-c2nc(NC3CC3)c3cc(Oc4ccccc4)ccc3n2)c1 [Example 75, 1-(4-(Cyclopropylamino)-6-phenoxyquinazolin-2-yl)-1H-pyrazole-4-carboxylic acid] | 6.8 | 20%
CCN(CC)c1nc(-n2cc(C(=O)O)cn2)nc2cc(F)c(OC3CCCCC3)cc12 [Example 102, 1-(6-(Cyclohexyloxy)-4-(diethylamino)-7-fluoroquinazolin-2-yl)-1H-pyrazole-4-carboxylic acid] | 7.5 | 37%
O=C(O)c1cnn(-c2nc(N3CCCC3)c3cc(OC4CCCCC4)c(F)cc3n2)c1 [Example 103, 1-(7-fluoro-6-(cyclohexyloxy)-4-(pyrrolidin-1-yl)quinazolin-2-yl)-1H-pyrazole-4-carboxylic acid] | 7.3 | 31%
CCN(C)c1nc(-n2cc(C(=O)O)cn2)nc2cc(F)c(OC3CCCCC3)cc12 [Example 104, 1-(7-fluoro-6-(cyclohexyloxy)-4-(ethyl(methyl)amino)quinazolin-2-yl)-1H-pyrazole-4-carboxylic acid] | 7.1 | 49%
O=C(O)c1cnn(-c2nc(NC3CC3)c3cc(OC4CCCCC4)c(F)cc3n2)c1 [Example 105, 1-(7-fluoro-6-(cyclohexyloxy)-4-(cyclopropylamino)quinazolin-2-yl)-1H-pyrazole-4-carboxylic acid] | 7.2 | 29%
O=C(O)c1cnn(-c2nc(N3CCOCC3)c3cc(OC4CCCCC4)c(Cl)cc3n2)c1 [Example 136, 1-(7-chloro-6-(cyclohexyloxy)-4-morpholinoquinazolin-2-yl)-1H-pyrazole-4-carboxylic acid] | 6.7 | 33%
CN(C)c1nc(-n2cc(C(=O)O)cn2)nc2cc(Cl)c(OC3CCCCC3)cc12 [Example 137, 1-(7-chloro-6-(cyclohexyloxy)-4-(dimethylamino)quinazolin-2-yl)-1H-pyrazole-4-carboxylic acid] | 7.4 | 32%

Now from value to compound, other results behind:

Enzyme pIC50 (PHD2181-417) | Structure (SMILES) | activation at 100 µM [1]
7.0 | O=C(O)c1cnn(-c2nc(NC3CC3)c3cc(Oc4ccc(Cl)cc4)ccc3n2)c1 [Example 62, 1-(6-(4-Chlorophenoxy)-4-(cyclopropylamino)quinazolin-2-yl)-1H-pyrazole-4-carboxylic acid] | 32%
7.4 | N#CC1CCN(c2nc(-n3cc(C(=O)O)cn3)nc3ccc(Oc4ccc(Cl)cc4)cc23)CC1 [Example 65, 1-(6-(4-Chlorophenoxy)-4-(4-cyanopiperidin-1-yl)quinazolin-2-yl)-1H-pyrazole-4-carboxylic acid] | 77%
7.1 | CC(=O)NC1CCN(c2nc(-n3cc(C(=O)O)cn3)nc3ccc(Oc4ccc(Cl)cc4)cc23)CC1 [Example 70, 1-(4-(4-Acetamidopiperidin-1-yl)-6-(4-chlorophenoxy)quinazolin-2-yl)-1H-pyrazole-4-carboxylic acid] | 16%
7.2 | O=C(O)c1cnn(-c2nc(N3CCCC3)c3cc(Oc4ccccc4)ccc3n2)c1 [Example 73, 1-(6-Phenoxy-4-(pyrrolidin-1-yl)quinazolin-2-yl)-1H-pyrazole-4-carboxylic acid] | 36%
7.4 | CN(C)c1nc(-n2cc(C(=O)O)cn2)nc2cc(Oc3ccccc3)ccc12 [Example 77, 1-(4-(Dimethylamino)-7-phenoxyquinazolin-2-yl)-1H-pyrazole-4-carboxylic acid] | 75%
7.0 | O=C(O)c1cnn(-c2nc(N3CCCCC3)c3ccc(Oc4ccccc4)cc3n2)c1 [Example 79, 1-(7-Phenoxy-4-(piperidin-1-yl)quinazolin-2-yl)-1H-pyrazole-4-carboxylic acid] | 38%
7.7 | CCN(CC)c1nc(-n2cc(C(=O)O)cn2)nc2cc(Oc3ccccc3)ccc12 [Example 83, 1-(4-(Diethylamino)-7-phenoxyquinazolin-2-yl)-1H-pyrazole-4-carboxylic acid] | 25%
6.6 | O=C(O)c1cnn(-c2nc(N3CCOCC3)c3cc(OC4CCCCC4)c(F)cc3n2)c1 [Example 100, 1-(7-Fluoro-6-(cyclohexyloxy)-4-morpholinoquinazolin-2-yl)-1H-pyrazole-4-carboxylic acid] | 18%
7.1 | CN(C)c1nc(-n2cc(C(=O)O)cn2)nc2cc(F)c(OC3CCCCC3)cc12 [Example 101, 1-(7-fluoro-6-(cyclohexyloxy)-4-(dimethylamino)quinazolin-2-yl)-1H-pyrazole-4-carboxylic acid] | 85%
